Molecules are shown by their SMILES.

The target in one test is GCGR (Homo sapiens, UniProt P47871). Description: I125-glucagon binding assay (competition, GCGR membrane fractions). Also on record: expressed in transfected cells; host or cells: CHO-K1; inhibition: dose or concentration left out as unconfirmed. The conditions noted are these: for IC50: competition with I125-glucagon 0.0625 nM, membrane fractions from GCGR overexpressed CHO-K1 cells; for inhibition: read-out: percentage of inhibition (number in parenthesis in IC50 binding column). The gist of the method: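 Membranes from CHO-K1 cells overexpressing GCGR (7.5 µg/well) were preincubated 5 min with serially diluted compound in 50 mM Tris pH 7.4, 0.5% BSA. I125-glucagon was then added at 0.0625 nM final and incubated 30 min at 25 °C. After filtration, bound radioactivity was counted and IC50 derived by non-linear regression.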

The target in a further test is T1, glucagon receptor (GCGR) (Homo sapiens, UniProt P47871).
T1 construct: expressed in transfected cells; host or cells: CHO-K1
Description: Glucagon cAMP inhibition assay (Cisbio cAMP Dynamic 2 HTRF). In kind it is cell-based. The conditions noted are these: GCGR overexpressed CHO-K1 cells or human primary hepatocytes (not specified); glucagon at EC50. A digest of the protocol: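 GCGR-overexpressing CHO-K1 cells or human primary hepatocytes in HBSS with 0.1% BSA and 800 nM IBMX, pre-incubated 30 min with compound (1% DMSO final), then stimulated 30 min at room temperature with glucagon at its EC50. cAMP measured by HTRF after 60 min lysis; IC50 from non-linear regression.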
In general terms: TR-FRET usually uses a lanthanide donor and a delayed reading to cut background.

Sequence of GCGR (P47871 26-477, species assumed): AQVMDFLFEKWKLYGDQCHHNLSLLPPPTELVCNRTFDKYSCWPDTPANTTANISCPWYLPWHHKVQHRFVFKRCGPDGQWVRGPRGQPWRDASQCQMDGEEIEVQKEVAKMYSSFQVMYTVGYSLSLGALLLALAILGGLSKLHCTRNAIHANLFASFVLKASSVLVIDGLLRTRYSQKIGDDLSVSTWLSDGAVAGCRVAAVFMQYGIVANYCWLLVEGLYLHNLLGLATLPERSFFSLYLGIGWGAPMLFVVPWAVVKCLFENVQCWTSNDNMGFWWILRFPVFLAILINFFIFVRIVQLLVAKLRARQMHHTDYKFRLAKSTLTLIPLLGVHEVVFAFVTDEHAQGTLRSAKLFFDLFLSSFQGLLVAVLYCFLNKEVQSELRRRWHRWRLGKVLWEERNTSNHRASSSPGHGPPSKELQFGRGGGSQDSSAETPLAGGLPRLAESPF
T1 sequence (P47871 26-477, species assumed): as above

On to `CCOC(=O)CCNC(=O)c1ccc(NC(CC(C)C)c2ccc(-c3noc(-c4ccccc4)n3)cc2)cc1` (centres unmarked) [Compound 2-9, ethyl 3-(4-((3-methyl-1-(4-(5-phenyl-1,2,4-oxadiazol-3-yl)phenyl)butyl)amino)benzamido)propanoate], for which, at GCGR, the half-maximal inhibitory concentration (IC50) – broadly, the concentration that gives 50% inhibition – is 1.49 µM and the inhibition (commonly the percentage by which the read-out fell short of the control) came to 31%. The compound also displayed a half-inhibitory concentration (IC50) on glucagon receptor (GCGR) of 0.105 µM.

Regarding `CC(C)CC(Nc1ccc(C(=O)NCCC(=O)O)cc1)c1ccc(-c2noc(-c3ccccc3)n2)cc1` (centres unmarked) [Compound 2-10, 3-(4-((3-methyl-1-(4-(5-phenyl-1,2,4-oxadiazol-3-yl)phenyl)butyl)amino)benzamido)propanoic acid], the IC50 at GCGR was found to be 0.124 µM; against glucagon receptor (GCGR) it was 0.959 µM.

`CCOC(=O)CCNC(=O)c1ccc(NC(c2ccc(-c3noc(-c4cccs4)n3)cc2)C(C)C)cc1` (centres unmarked) [Compound 2-11, ethyl 3-(4-((2-methyl-1-(4-(5-(thiophen-2-yl)-1,2,4-oxadiazol-3-yl)phenyl)propyl)amino)benzamido)propanoate]: on GCGR, the IC50 came out at 3.06 µM and the inhibition was 38%. Besides, the IC50 against glucagon receptor (GCGR) is 0.18 µM.

Take `CC(C)C(Nc1ccc(C(=O)NCCC(=O)O)cc1)c1ccc(-c2noc(-c3cccs3)n2)cc1` (centres unmarked) [Compound 2-12, 3-(4-((2-methyl-1-(4-(5-(thiophen-2-yl)-1,2,4-oxadiazol-3-yl)phenyl)propyl)amino)benzamido)propanoic acid]: the IC50 on GCGR came to 0.354 µM; against glucagon receptor (GCGR), 0.504 µM.

With `CCCCC(Nc1ccc(C(=O)NCCC(=O)O)cc1)c1ccc(-c2noc(-c3cccs3)n2)cc1` (centres unmarked) [Compound 2-13, 3-(4-((1-(4-(5-(thiophen-2-yl)-1,2,4-oxadiazol-3-yl)phenyl)pentyl)amino)benzamido)propanoic acid], the IC50 was 0.126 µM at GCGR and 0.312 µM at glucagon receptor (GCGR).

Turning to `CC(C)CC(Nc1ccc(C(=O)NCCC(=O)O)cc1)c1ccc(-c2noc(-c3cccs3)n2)cc1` (centres unmarked) [Compound 2-14, 3-(4-((3-methyl-1-(4-(5-(thiophen-2-yl)-1,2,4-oxadiazol-3-yl)phenyl)butyl)amino)benzamido)propanoic acid], the IC50 is 0.274 µM at GCGR and 1.39 µM at glucagon receptor (GCGR).

Turning to `O=C(O)CCNC(=O)c1ccc(NC(c2ccc(-c3noc(-c4ccccc4)n3)cc2)C2CCCC2)cc1` (centres unmarked) [Compound 2-15, 3-(4-((cyclopentyl(4-(5-phenyl-1,2,4-oxadiazol-3-yl)phenyl)methyl)amino)benzamido)propanoic acid], the concentration for half-maximal inhibition (IC50) was 0.106 µM at GCGR and 0.45 µM at glucagon receptor (GCGR).

On to `CCOC(=O)CCNC(=O)c1ccc(NC(c2ccc(-c3noc(-c4ccccc4)n3)cc2)C2CCCCC2)cc1` (centres unmarked) [Compound 2-16, ethyl 3-(4-((cyclohexyl(4-(5-phenyl-1,2,4-oxadiazol-3-yl)phenyl)methyl)amino)benzamido)propanoate], for which the half-inhibitory concentration (IC50) is 0.178 µM at GCGR and 0.438 µM on glucagon receptor (GCGR).

`O=C(O)CCNC(=O)c1ccc(NC(c2ccc(-c3noc(-c4ccccc4)n3)cc2)C2CCCCC2)cc1` (centres unmarked) [Compound 2-17, 3-(4-((cyclohexyl(4-(5-phenyl-1,2,4-oxadiazol-3-yl)phenyl)methyl)amino)benzamido)propanoic acid]: the values for the IC50 at GCGR and at glucagon receptor (GCGR) were 0.054 µM and 0.511 µM, respectively.

In the case of `CCOC(=O)CCNC(=O)c1ccc(N[C@H](c2ccc(-c3noc(-c4ccccc4)n3)cc2)C(C)CC)cc1` (stereo partly drawn) [Compound 2-18, ethyl 3-(4-(((1S)-2-methyl-(4-(5-phenyl-1,2,4-oxadiazol-3-yl)phenyl)butyl)amino)benzamido)propanoate], the IC50 at GCGR came out at 0.83 µM; against glucagon receptor (GCGR), 0.0467 µM.

For the compound `CCOC(=O)CCNC(=O)c1ccc(N[C@@H](c2ccc(-c3noc(-c4ccccc4)n3)cc2)C(C)CC)cc1` (stereo partly drawn) [Compound 2-20, ethyl 3-(4-(((1R)-2-methyl-1-(4-(5-phenyl-1,2,4-oxadiazol-3-yl)phenyl)butyl)amino)benzamido)propanoate], the IC50 at GCGR turned out to be 0.217 µM; at glucagon receptor (GCGR), 0.338 µM.

Take `CCC(C)[C@@H](Nc1ccc(C(=O)NCCC(=O)O)cc1)c1ccc(-c2noc(-c3ccccc3)n2)cc1` (stereo partly drawn) [Compound 2-21, 3-(4-(((1R)-2-methyl-1-(4-(5-phenyl-1,2,4-oxadiazol-3-yl)phenyl)butyl)amino)benzamido)propanoic acid]: the concentration for half-maximal inhibition (IC50) at GCGR was 0.085 µM; against glucagon receptor (GCGR), 0.569 µM.

In the case of `CCOC(=O)CCNC(=O)c1ccc(N[C@@H](c2ccc(-c3noc(-c4ccccc4)n3)cc2)C(C)C)cc1` [Compound 2-22, ethyl (R)-3-(4-((2-methyl-1-(4-(5-phenyl-1,2,4-oxadiazol-3-yl)phenyl)propyl)amino)benzamido)propanoate], the values for the half-inhibitory concentration (IC50) at GCGR and against glucagon receptor (GCGR) were 0.673 µM and 0.245 µM, respectively.

Consider `CC(C)[C@@H](Nc1ccc(C(=O)NCCC(=O)O)cc1)c1ccc(-c2noc(-c3ccccc3)n2)cc1` [Compound 2-23, (R)-3-(4-((2-methyl-1-(4-(5-phenyl-1,2,4-oxadiazol-3-yl)phenyl)propyl)amino)benzamido)propanoic acid], for which the IC50 was 0.537 µM at GCGR and 1 µM against glucagon receptor (GCGR).

Take `CCOC(=O)CCNC(=O)c1ccc(NC(c2ccc(-c3noc(-c4ccc(F)cc4)n3)cc2)C(C)C)cc1` (centres unmarked) [Compound 2-24, ethyl 3-(4-((1-(4-(5-(4-fluorophenyl)-1,2,4-oxadiazol-3-yl)phenyl)-2-methylpropyl)amino)benzamido)propanoate]: on GCGR, the IC50 stood at 2.68 µM and the inhibition turned out to be 35%. On glucagon receptor (GCGR), the IC50 amounted to 0.248 µM.

As for `CC(C)C(Nc1ccc(C(=O)NCCC(=O)O)cc1)c1ccc(-c2noc(-c3ccc(F)cc3)n2)cc1` (centres unmarked) [Compound 2-25, 3-(4-((1-(4-(5-(4-fluorophenyl)-1,2,4-oxadiazol-3-yl)phenyl)-2-methylpropyl)amino)benzamido)propanoic acid], the IC50 at GCGR came out at 0.058 µM; against glucagon receptor (GCGR) it was 1.19 µM.

Regarding `CC(C)C(Nc1ccc(C(=O)NCCC(=O)O)cc1)c1ccc(-c2noc(-c3ccccc3)n2)cc1` (centres unmarked) [Compound 2-26, 3-(4-((2-methyl-1-(4-(5-phenyl-1,2,4-oxadiazol-3-yl)phenyl)propyl)amino)benzamido)propanoic acid], the 50% inhibitory concentration (IC50) on GCGR was determined as 0.04 µM; at glucagon receptor (GCGR) it was 0.57 µM.

`CCOC(=O)CCNC(=O)c1ccc(N[C@H](c2ccc(-c3noc(-c4ccccc4)n3)cc2)C(C)C)cc1` [Compound 2-27, ethyl (S)-3-(4-((2-methyl-1-(4-(5-phenyl-1,2,4-oxadiazol-3-yl)phenyl)propyl)amino)benzamido)propanoate]: the results for the IC50 at GCGR and against glucagon receptor (GCGR) were 0.634 µM and 0.061 µM, respectively.

With `CC(C)[C@H](Nc1ccc(C(=O)NCCC(=O)O)cc1)c1ccc(-c2noc(-c3ccccc3)n2)cc1` [Compound 2-28, (S)-3-(4-((2-methyl-1-(4-(5-phenyl-1,2,4-oxadiazol-3-yl)phenyl)propyl)amino)benzamido)propanoic acid], the IC50 was determined as 0.029 µM at GCGR and 0.295 µM against glucagon receptor (GCGR).

Turning to `CCOC(=O)CCNC(=O)c1ccc(N[C@H](c2ccc(-c3noc(C(F)(F)F)n3)cc2)C(C)CC)cc1` (stereo partly drawn) [Compound 2-29, ethyl 3-(4-(((1S)-2-methyl-1-(4-(5-(trifluoromethyl)-1,2,4-oxadiazol-3-yl)phenyl)butyl)amino)benzamido)propanoate], at GCGR, the IC50 was determined as 1.82 µM and the inhibition came to 18%. Moreover, it took 0.172 µM to reach half-maximal inhibition at glucagon receptor (GCGR) (IC50).

As to `CCC(C)[C@H](Nc1ccc(C(=O)NCCC(=O)O)cc1)c1ccc(-c2noc(C(F)(F)F)n2)cc1` (stereo partly drawn) [Compound 2-30, 3-(4-(((1S)-2-methyl-1-(4-(5-(trifluoromethyl)-1,2,4-oxadiazol-3-yl)phenyl)butyl)amino)benzamido)propanoic acid], the IC50 at GCGR turned out to be 0.166 µM; against glucagon receptor (GCGR) it was 0.55 µM.

With `COC(=O)CCNC(=O)c1ccc(NC(c2ccc(-c3noc(-c4ccccc4)n3)cc2)C(C)C)cc1` (centres unmarked) [Compound 2-31, methyl 3-(4-((2-methyl-1-(4-(5-phenyl-1,2,4-oxadiazol-3-yl)phenyl)propyl)amino)benzamido)propanoate], the values for the IC50 at GCGR and against glucagon receptor (GCGR) were 0.204 µM and 0.097 µM, respectively.

Take `CCCCC(Nc1ccc(C(=O)NCCC(=O)OC)cc1)c1ccc(-c2noc(-c3ccccc3)n2)cc1` (centres unmarked) [Compound 2-32, methyl 3-(4-((1-(4-(5-phenyl-1,2,4-oxadiazol-3-yl)phenyl)pentyl)amino)benzamido)propanoate]: the results for the half-maximal inhibitory concentration (IC50) on GCGR and against glucagon receptor (GCGR) were 0.616 µM and 0.147 µM, respectively.

For the compound `CCCC[C@H](Nc1ccc(C(=O)NCCC(=O)OCC)cc1)c1ccc(-c2noc(-c3ccccc3)n2)cc1` [Compound 2-33, ethyl (S)-3-(4-((1-(4-(5-phenyl-1,2,4-oxadiazol-3-yl)phenyl)pentyl)amino)benzamido)propanoate], the IC50 at GCGR is 1.04 µM; on glucagon receptor (GCGR), 0.283 µM.

On to `CCCC[C@@H](Nc1ccc(C(=O)NCCC(=O)OCC)cc1)c1ccc(-c2noc(-c3ccccc3)n2)cc1` [Compound 2-35, ethyl (R)-3-(4-((1-(4-(5-phenyl-1,2,4-oxadiazol-3-yl)phenyl)pentyl)amino)benzamido)propanoate], for which the IC50 at GCGR worked out at 0.04 µM; at glucagon receptor (GCGR), 0.852 µM.

As to `CCCC[C@@H](Nc1ccc(C(=O)NCCC(=O)O)cc1)c1ccc(-c2noc(-c3ccccc3)n2)cc1` [Compound 2-36, (R)-3-(4-((1-(4-(5-phenyl-1,2,4-oxadiazol-3-yl)phenyl)pentyl)amino)benzamido)propanoic acid], the IC50 amounted to 0.199 µM at GCGR and 0.338 µM on glucagon receptor (GCGR).

Values taken from patent US10882837B2, “Amide compounds and use thereof” (ALPHALA CO., LTD., priority 2017, dated 2021).
